Data taken from ChEMBL document CHEMBL4257508, “The semi-synthesis, biological evaluation and docking analysis of the oxime, hydrazine and hydrazide derivatives of platensimycin” (Medchemcomm, 2018).
Converted amounts (≈) assume the structure as drawn.

How the values were obtained:
Klebsiella pneumoniae = test: Antibacterial activity against Klebsiella pneumoniae after 16 hrs by agar dilution method; type: functional
Staphylococcus aureus [1] = test: Antibacterial activity against methicillin-sensitive Staphylococcus aureus after 16 hrs by agar dilution method; type: functional
Escherichia coli = test: Antibacterial activity against Escherichia coli after 16 hrs by agar dilution method; type: functional
Staphylococcus aureus [2] = test: Antibacterial activity against Staphylococcus aureus ATCC 29213 after 16 hrs by agar dilution method; type: functional; conditions: ATCC 29213, 16 h
Staphylococcus aureus [3] = test: Antibacterial activity against methicillin-resistant Staphylococcus aureus after 16 hrs by agar dilution method; type: functional
[4] = Stability of the compound in LB agar after 16 hrs by UPLC analysis; type: physicochemical

SMILES	MIC (Klebsiella pneumoniae) [µg/mL]	MIC (Staphylococcus aureus [1]) [µg/mL]	MIC (Escherichia coli) [µg/mL]	MIC (Staphylococcus aureus [2]) [µg/mL]	MIC (Staphylococcus aureus [3]) [µg/mL]	Stability [4]
C[C@]12C[C@@]34CCC(=O)[C@@](C)(CCC(=O)Nc5c(O)ccc(C(=O)O)c5O)[C@@H]3[C@H](C[C@@H]1C4)O2	> 64	2 (≈ 4.51 µM)	> 64	2 (≈ 4.51 µM)	2 (≈ 4.51 µM)	
C[C@]12C[C@@]34C=CC(=O)[C@@](C)(CCC(=O)Nc5c(O)ccc(C(=O)O)c5O)[C@@H]3[C@H](C[C@@H]1C4)O2		0.5 (≈ 1.13 µM)		0.5 (≈ 1.13 µM)	1 (≈ 2.27 µM)	
CC(C)(C)OC(=O)N/N=C1\C=C[C@]23C[C@H]4C[C@H](O[C@@]4(C)C2)[C@H]3[C@]1(C)CCC(=O)Nc1c(O)ccc(C(=O)O)c1O	> 64	16 (≈ 28.8 µM)	> 64			Stable
C[C@]12C[C@@]34C=C/C(=N\O)[C@@](C)(CCC(=O)Nc5c(O)ccc(C(=O)O)c5O)[C@@H]3[C@H](C[C@@H]1C4)O2	> 64	16 (≈ 35 µM)	> 64	32 (≈ 70.1 µM)	32 (≈ 70.1 µM)	
COc1ccc(O)c(C(=O)N/N=C2\C=C[C@]34C[C@H]5C[C@H](O[C@@]5(C)C3)[C@H]4[C@]2(C)CCC(=O)Nc2c(O)ccc(C(=O)O)c2O)c1	> 64	16 (≈ 26.4 µM)	> 64			
C[C@@]1(CCC(=O)Nc2c(O)ccc(C(=O)O)c2O)[C@H](O)C=C[C@]23C[C@H]4C[C@H](O[C@@]4(C)C2)[C@H]31	> 64	> 64	> 64	> 64		
CCO/N=C1\C=C[C@]23C[C@H]4C[C@H](O[C@@]4(C)C2)[C@H]3[C@]1(C)CCC(=O)Nc1c(O)ccc(C(=O)O)c1O	> 64	> 64	> 64	> 64		
C[C@]12C[C@@]34C=C/C(=N\NC(=O)c5ccccc5)[C@@](C)(CCC(=O)Nc5c(O)ccc(C(=O)O)c5O)[C@@H]3[C@H](C[C@@H]1C4)O2	> 64	32 (≈ 57.2 µM)	> 64	32 (≈ 57.2 µM)		Stable
C[C@]12C[C@]34C[C@H]1C[C@H](O2)[C@H]3[C@](C)(CCC(=O)Nc1c(O)ccc(C(=O)O)c1O)/C(=N/O)C[C@@H]4NO	> 64	16 (≈ 32.7 µM)	> 64	16 (≈ 32.7 µM)	16 (≈ 32.7 µM)	
C[C@]12C[C@@]34C=C/C(=N\NC(N)=O)[C@@](C)(CCC(=O)Nc5c(O)ccc(C(=O)O)c5O)[C@@H]3[C@H](C[C@@H]1C4)O2	> 64	8 (≈ 16 µM)	> 64			
C[C@]12C[C@@]34C=C/C(=N\NC(=O)Cc5ccccc5)[C@@](C)(CCC(=O)Nc5c(O)ccc(C(=O)O)c5O)[C@@H]3[C@H](C[C@@H]1C4)O2	> 64	8 (≈ 13.9 µM)	> 64	8 (≈ 13.9 µM)		Stable
CO/N=C1\C=C[C@]23C[C@H]4C[C@H](O[C@@]4(C)C2)[C@H]3[C@]1(C)CCC(=O)Nc1c(O)ccc(C(=O)O)c1O	> 64	> 64	> 64	> 64		Stable
CC(=O)N/N=C1\C=C[C@]23C[C@H]4C[C@H](O[C@@]4(C)C2)[C@H]3[C@]1(C)CCC(=O)Nc1c(O)ccc(C(=O)O)c1O	> 64		> 64			
C[C@]12C[C@@]34C=C/C(=N\c5ccccc5)[C@@](C)(CCC(=O)Nc5c(O)ccc(C(=O)O)c5O)[C@@H]3[C@H](C[C@@H]1C4)O2	> 64	1 (≈ 1.94 µM)	> 64	2 (≈ 3.87 µM)	2 (≈ 3.87 µM)	Stable
CC(C)(C)c1ccc(C(=O)N/N=C2\C=C[C@]34C[C@H]5C[C@H](O[C@@]5(C)C3)[C@H]4[C@]2(C)CCC(=O)Nc2c(O)ccc(C(=O)O)c2O)cc1	> 64	16 (≈ 26 µM)	> 64	32 (≈ 52 µM)		
C[C@]1(CCC(=O)Nc2c(O)ccc(C(=O)O)c2O)[C@@H]2[C@@H]3C[C@@H]4C[C@@]2(CC[C@@H]1O)C[C@]4(C)O3	> 64	> 64	> 64	> 64		
C[C@]12C[C@@]34C=C/C(=N\NC(N)=S)[C@@](C)(CCC(=O)Nc5c(O)ccc(C(=O)O)c5O)[C@@H]3[C@H](C[C@@H]1C4)O2	> 64	16 (≈ 31.1 µM)	> 64			
C[C@@]1(CCC(=O)Nc2c(O)ccc(C(=O)O)c2O)[C@H](O)CC[C@]23C[C@H]4C[C@H](O[C@@]4(C)C2)[C@H]31	> 64	> 64	> 64	> 64		
C[C@]12C[C@@]34C=C/C(=N\NC(=O)c5ccc(O)cc5)[C@@](C)(CCC(=O)Nc5c(O)ccc(C(=O)O)c5O)[C@@H]3[C@H](C[C@@H]1C4)O2	> 64		> 64			
C[C@]1(CCC(=O)Nc2c(O)ccc(C(=O)O)c2O)[C@@H]2[C@@H]3C[C@@H]4C[C@@]2(C=C[C@@H]1O)C[C@]4(C)O3	> 64	> 64	> 64	> 64		
CC(=O)NC[C@H]1CN(c2ccc(N3CCOCC3)c(F)c2)C(=O)O1 [LINEZOLID]		1 (≈ 2.96 µM)		1 (≈ 2.96 µM)	1 (≈ 2.96 µM)	
C=C1C[C@@]23C=CC(=O)[C@@](C)(CCC(=O)Nc4c(O)ccc(C(=O)O)c4O)[C@@H]2C[C@@H]1CC3 [PLATENCIN]		1 (≈ 2.35 µM)		1 (≈ 2.35 µM)	1 (≈ 2.35 µM)	
